These molecules were tested against Beta-secretase 1 (Homo sapiens, UniProt P56817) (assay: Inhibition of BACE (unknown origin)).
Sequence of Beta-secretase 1 (P56817 whole entry): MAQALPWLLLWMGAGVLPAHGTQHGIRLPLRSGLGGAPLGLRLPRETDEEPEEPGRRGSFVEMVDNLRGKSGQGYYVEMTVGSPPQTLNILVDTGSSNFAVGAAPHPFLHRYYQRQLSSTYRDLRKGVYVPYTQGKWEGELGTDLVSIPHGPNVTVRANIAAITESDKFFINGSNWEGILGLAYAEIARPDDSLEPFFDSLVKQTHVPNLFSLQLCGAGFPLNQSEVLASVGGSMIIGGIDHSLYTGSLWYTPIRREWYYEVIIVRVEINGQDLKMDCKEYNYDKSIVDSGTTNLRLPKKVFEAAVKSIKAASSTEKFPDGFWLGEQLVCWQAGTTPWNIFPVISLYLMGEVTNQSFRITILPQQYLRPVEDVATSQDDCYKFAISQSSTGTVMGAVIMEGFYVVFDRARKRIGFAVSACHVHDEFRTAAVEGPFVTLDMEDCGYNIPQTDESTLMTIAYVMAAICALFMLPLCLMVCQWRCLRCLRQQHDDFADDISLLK

Ki [µM]	Compound
22.4	CC(C)C[C@H](NCC(=O)[C@H](CC(N)=O)NC(=O)OC(C)(C)C)[C@@H](O)C[C@@H](C)C(=O)N[C@@H](C)C(=O)NCc1ccccc1
8	CC(C)C[C@H](NCC(=O)[C@@H](CCS(C)(=O)=O)NC(=O)[C@@H](NC(=O)OC(C)(C)C)C(C)C)[C@@H](O)C[C@@H](C)C(=O)N[C@@H](C(=O)NCc1ccccc1)C(C)C
10.5	CSCC[C@@H](NC(=O)[C@@H](NC(=O)OC(C)(C)C)C(C)C)C(=O)CN[C@@H](CC(C)C)[C@@H](O)C[C@@H](CC(C)C)C(=O)N[C@@H](C(=O)NCc1ccccc1)C(C)C
3.13	CC(C)C[C@H](NCC(=O)[C@H](CC(N)=O)NC(=O)OC(C)(C)C)[C@@H](O)C[C@@H](C)C(=O)N[C@H](C(=O)NCc1ccccc1)C(C)C
1.13	CC(C)C[C@H](NCC(=O)[C@H](CS(C)(=O)=O)NC(=O)OC(C)(C)C)[C@@H](O)C[C@@H](C)C(=O)N[C@H](C(=O)NCc1ccccc1)C(C)C
61.4	CC(C)C[C@H](NCC(=O)[C@H](CC(N)=O)NC(=O)[C@@H](NC(=O)OC(C)(C)C)C(C)C)[C@@H](O)C[C@@H](C)C(=O)N[C@@H](C)C(=O)NCc1ccccc1
5.9	CC(C)C[C@H](NCC(=O)[C@H](CC(N)=O)NC(=O)[C@@H](NC(=O)OC(C)(C)C)C(C)C)[C@@H](O)C[C@@H](C)C(=O)N[C@@H](C(=O)NCc1ccccc1)C(C)C
50.1	CSC[C@@H](NC(=O)[C@@H](NC(=O)OC(C)(C)C)C(C)C)C(=O)CN[C@@H](CC(C)C)[C@@H](O)C[C@@H](C)C(=O)N[C@H](C(=O)NCc1ccccc1)C(C)C
9.4	CC(C)C[C@H](NCC(=O)[C@H](CS(C)(=O)=O)NC(=O)[C@@H](NC(=O)OC(C)(C)C)C(C)C)[C@@H](O)C[C@@H](C)C(=O)N[C@@H](C(=O)NCc1ccccc1)C(C)C
5.81	CSCC[C@@H](NC(=O)OC(C)(C)C)C(=O)CN[C@@H](CC(C)C)[C@@H](O)C[C@@H](C)C(=O)N[C@H](C(=O)NCc1ccccc1)C(C)C
2.5	CSCC[C@@H](NC(=O)[C@@H](NC(=O)OC(C)(C)C)C(C)C)C(=O)CN[C@@H](CC(C)C)[C@@H](O)C[C@@H](C)C(=O)NC(C(=O)NCc1ccccc1)C(C)C (single isomer, unassigned)

— ChEMBL document CHEMBL3045025, “Exploring structural requirement and binding interactions of -amyloid cleavage enzyme inhibitors using molecular modeling techniques” (Med Chem Res, 2013)
